Reference: PubChem BioAssay AID256 (DTP/NCI, 2004)
Values joined by “and” are separate entries in the source; they are usually repeats but may differ in a detail not shown here. Identical values can stand only once. Toxic doses and inconclusive results are not listed. Rule for the calls: active = survival T/C of 150% or more; inactive = T/C below 125% in these data.

System: CD2F1 mice, L1210 leukemia ip, survival T/C
Assay: NCI In Vivo Anticancer Drug Screen. Data for tumor model L1210 Leukemia (intraperitoneal) in CD2F1 (CDF1) mice
Settings: endpoint: mean survival time, higher = longer survival
Method in brief: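 Ratio T/C, where T is the treated-group value and C the vehicle-dosed control value, from mice implanted with a transplantable tumor.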

[1] = dose: 100.0 mg/kg/injection, schedule: Q04DX003 (ip), vehicle: saline with Tween-80
[2] = dose: 200.0 mg/kg/injection, schedule: Q04DX003 (ip), vehicle: saline with Tween-80
[3] = dose: 100.0 mg/kg/injection, schedule: Q01DX001 (ip), vehicle: saline with Tween-80
[4] = dose: 100.0 mg/kg/injection, schedule: Q01DX009 (ip), vehicle: saline with Tween-80
[5] = dose: 200.0 mg/kg/injection, schedule: Q01DX001 (ip), vehicle: saline with Tween-80
[6] = dose: 200.0 mg/kg/injection, schedule: Q01DX009 (ip), vehicle: saline with Tween-80
[7] = dose: 400.0 mg/kg/injection, schedule: Q01DX001 (ip), vehicle: saline with Tween-80
[8] = dose: 400.0 mg/kg/injection, schedule: Q01DX009 (ip), vehicle: saline with Tween-80
[9] = dose: 400.0 mg/kg/injection, schedule: Q04DX003 (ip), vehicle: saline with Tween-80

Measured: T/C

O=[N+]([O-])c1ccc(Nc2ccc(Br)cc2)c([N+](=O)[O-])c1
inactive: [1] 95 % of control | [2] 93 % of control

c1ccc([O+](c2ccccc2)c2ccccc2)cc1
inactive: dose: 0.63 mg/kg/injection, schedule: Q01DX009 (ip), vehicle: saline with Tween-80 102 % of control | dose: 1.25 mg/kg/injection, schedule: Q01DX009 (ip), vehicle: saline with Tween-80 113 % of control | dose: 2.5 mg/kg/injection, schedule: Q01DX009 (ip), vehicle: saline with Tween-80 107 % of control | dose: 5.0 mg/kg/injection, schedule: Q01DX009 (ip), vehicle: saline with Tween-80 90 % of control and 112 % of control

CC1(CNC(=O)C(=O)NCC2(C)CO2)CO1 (stereo not drawn)
inactive: dose: 22.0 mg/kg/injection, schedule: Q01DX Z (ip), vehicle: saline 122 % of control | dose: 150.0 mg/kg/injection, schedule: Q01DX010 (ip), vehicle: saline 113 % of control | dose: 225.0 mg/kg/injection, schedule: Q01DX010 (ip), vehicle: saline 106 % of control

Clc1ccc(Sc2ccc(Cl)cc2)cc1
inactive: [3] 94 % of control | [4] 98 % of control | [1] 91 % of control | [5] 108 % of control | [6] 102 % of control | [2] 91 % of control | [7] 91 % of control | [8] 98 % of control

O=S(=O)(Oc1ccc(OS(=O)(=O)c2ccccc2)cc1)c1ccccc1
inactive: [4] 96 % of control | [6] 98 % of control | [8] 107 % of control

Br/C(C=Nc1ccccc1)=C\Nc1ccccc1
inactive: [4] 102 % of control | [1] 101 % of control | [6] 86 % of control | [2] 108 % of control | [8] 86 % of control | [9] 108 % of control

CN(C)S(=O)(=O)C(C)(C)c1ccccc1
inactive: [3] 100 % of control | [4] 96 % of control | [1] 94 % of control | [5] 101 % of control | [6] 96 % of control | [2] 94 % of control | [7] 100 % of control | [9] 96 % of control

COC1=c2\cccc\c2=N\C(OC)=c2\cccc\c2=N\1
inactive: [1] 101 % of control | [2] 101 % of control | [9] 98 % of control

COc1ccc(CC(N)C(=O)O)cc1N(CCCl)CCCl (stereo not drawn)
inactive: dose: 3.2 mg/kg/injection, schedule: Q01DX001 (ip), vehicle: carboxymethylcellulose (CMC) 122 % of control

CCOC(=O)C(CC)(C(=O)OCC)c1c(Cl)c(=O)oc2ccc(Cl)cc12
inactive: [3] 100 % of control | [5] 97 % of control | [7] 91 % of control

O=c1ccc(OS(=O)(=O)c2ccccc2)n[nH]1
inactive: dose: 100.0 mg/kg/injection, schedule: Q04DX002 (ip), vehicle: saline with Tween-80 95 % of control | dose: 200.0 mg/kg/injection, schedule: Q04DX002 (ip), vehicle: saline with Tween-80 87 % of control | dose: 400.0 mg/kg/injection, schedule: Q04DX002 (ip), vehicle: saline with Tween-80 104 % of control

O=C(Nc1ccc(F)cc1)c1cccc(C(=O)Nc2ccc(F)cc2)c1
inactive: dose: 25.0 mg/kg/injection, schedule: Q01DX009 (ip), vehicle: saline with Tween-80 95 % of control | dose: 50.0 mg/kg/injection, schedule: Q01DX009 (ip), vehicle: saline with Tween-80 94 % of control | [4] 94 % of control

COC(=O)C(=[N+]=[N-])C(=O)OC
inactive: [4] 93 % of control | [1] 101 % of control | [6] 93 % of control | [2] 101 % of control | [8] 91 % of control | [9] 98 % of control

Clc1ccc(N=Cc2ccc3c(c2)OCO3)cc1
inactive: dose: 100.0 mg/kg/injection, schedule: Q04DX003 (ip), vehicle: other 91 % of control | dose: 200.0 mg/kg/injection, schedule: Q04DX003 (ip), vehicle: other 96 % of control | dose: 400.0 mg/kg/injection, schedule: Q04DX003 (ip), vehicle: other 100 % of control

O=C(c1ccccc1)C(C(O)CCl)C(O)(C(F)(F)F)C(F)(F)F (stereo not drawn)
inactive: [4] 94 % of control | [6] 94 % of control

CCOC(=O)NC(=O)CC#N
inactive: [1] 101 % of control | [2] 93 % of control | [9] 103 % of control

O=C(OCc1ccccc1)C(Cl)(Cl)Cl
inactive: [1] 107 % of control | [2] 103 % of control | [9] 96 % of control

CC(C)(C)CC(C)(C)c1ccc(OCCOc2ccc(C(=O)Nc3ccc(S(=O)(=O)Oc4ccccc4)cc3)cc2[N+](=O)[O-])cc1
inactive: dose: 100.0 mg/kg/injection, schedule: Q01DX009 (ip), vehicle: Klucel (hydroxypropylcellulose) (HPC) 101 % of control | [1] 98 % of control | dose: 200.0 mg/kg/injection, schedule: Q01DX009 (ip), vehicle: Klucel (hydroxypropylcellulose) (HPC) 106 % of control | [2] 93 % of control | dose: 400.0 mg/kg/injection, schedule: Q01DX009 (ip), vehicle: Klucel (hydroxypropylcellulose) (HPC) 95 % of control | [9] 92 % of control

O=C(CCl)Nc1ccccn1
inactive: dose: 100.0 mg/kg/injection, schedule: Q01DX009 (ip), vehicle: saline 96 % of control | dose: 200.0 mg/kg/injection, schedule: Q01DX009 (ip), vehicle: saline 102 % of control | dose: 400.0 mg/kg/injection, schedule: Q01DX009 (ip), vehicle: saline 97 % of control
